In patent publication US20090155797A1, “Methods For Generating Enhanced Antibody-Producing Cell Lines With Improved Growth Characteristics” (priority 2002, published 2009):

Test system: H34 cells
Test: Antibody production by ELISA from H34 hybridoma cells incubated with protease inhibitor
Format: cell-based, mouse
Settings: H34 cells incubated 1-3 days with 4 mM AEBSF in 96 well plates, supernatant ELISA; untreated H34 4.3 ug/ml

Compound: NCCc1ccc(S(=O)(=O)F)cc1 [AEBSF, 4-(2-aminoethyl)-benzenesulfonyl floride]
- ANTIBODY PRODUCTION TREATED: 0.031 µg/mL
